Measurements reported in patent publication US7387806B2, “Method of using geranium oil and sophora root extracts as a supporting composition in cancer treatments” (priority 2001, dated 2008).

Test: Pharmacokinetics study of intravenous injection of matrine or oxymatrine with addition of geranium oil
Procedure: The Sophora root typically is about 10-30 cm long, 1-2 cm in diameter and generally takes on a grayish brown or grayish yellow color. The root preferably has a mild scent and an extremely bitter taste. It is grown mainly in China, Korea, and Japan. Presently, the alkaloids identified in Sophora roots are matrine, oxymatrine, sophoranol, N-methylcytisine, anagyrine, baptifoline, sophocarpine, sophoridine, iso matrine, 7, 11-Dehydromatrine, sophoramine, 7-Dehydrosophoramine, 9α-Hydroxy-Sophoramine, 5α,9α-Dihydroxymatrine, N-Oxysophocarpine, sophoranol N-oxide, rhombifoline, Lupanine, Mamanine, Kuraramine, Isokuraramine, Kurarinol. The known main constituents are matrine, oxymatrine. The principal main constituents of Sophora flavescenes are also found in Sophora subprostrata, Sophora tonkinensis, Sophora alopecuroides, Sophora moorcroftiana, and Euchresta strigillosa.

| SMILES | effect of addition of geranium oil on absorption and metabolism of the compound (intravenous injection, with vs without geranium oil) | effect of addition of geranium oil on absorption and metabolism of the compound (in vivo, iv) |
| --- | --- | --- |
| O=C1CCC[C@@H]2[C@H]3CCCN4CCC[C@@H](CN12)[C@@H]34 [matrine] | increase the absorption and metabolism |  |
| O=C1CCC[C@@H]2[C@H]3CCC[N+]4([O-])CCC[C@@H](CN12)[C@@H]34 (some centres unmarked) [oxymatrine] |  | increase the absorption and metabolism |
